Two substances from patent publication US20100286247A1, “Methods of Protection from Oxidative Stress” (Trustees of Boston University, priority 2005, published 2010) can be followed below.

The test system of series [1] is SOD2 protein. The experiment in a line: Western blot analysis of antioxidant enzymes: SOD2 protein. In kind it is cell-based, human. The procedure: (§1) Cell lysates were harvested at various intervals after T-oligo treatment in harvest buffer containing 0.25 M Tris HCl (pH 7.5), 0.375 M NaCl, 2.5% sodium deoxycholate, 1% Triton X-100, 25 mM MgCl2, 0.1 mg/ml aprotinin (Sigma, St. Louis, Mo.) and 1 mM phenylmethyl sulfonyl flouride (PMSF) (Sigma). Samples were sheared through a fine needle syringe, sonicated, centrifuged and the supernatant was isolated. Total cellular protein concentrations were determined spectrophotometrically with the Bio-Rad protein assay (Bio-Rad Laboratories, Inc, Hercules, Calif.). Equal amounts of total protein from each sample (35-65 μg) were separated by 10-15% polyacrylamide gel electrophoresis, and transferred to nitrocellulose membranes. After transfer, gels were stained with Coomassie Blue (Sigma) to ascertain evenness of loading.
(§2) Membranes were reacted with antibodies diluted in Tris-based buffer with nonfat milk powder as a blocking agent. […] Antibody binding was detected with electrochemical luminescence (ECL kit, NEN Life Science Products, Inc.) and exposure to XAR film (Eastman Kodak Co.).
Northern and western films as well as stained membranes and pictures of ethidium bromide-stained gels were digitally scanned and analyzed by densitometry. […]
On the technique in general: In western blotting, separated proteins are transferred to a membrane and probed.

For series [2], the system named is primary human newborn dermal fibroblasts. The experiment in a line: MTS viability assay. Type of series: cell-based. Particulars: 100 μM pTT. An excerpt: The CellTiter 96 Aqueous One Solution Cell Proliferation Assay, a version of the MTT assay, (Promega Corp., Madison, Wis.) is generally used as a eukaryotic cell viability and proliferation assay.^180 It has also been used to measure mitochondrial dysfunction,^181 because the assay measures the reduction of a tetrazolium compound [3-(4,5-dimethylthiazol-2-yl)-5-(-3-carboxymethoxyphenyl)-2-(4-sulfophenyl)-2H-tetrazolium] to formazan in viable mitochondria. The MTS assay utilizes a water-soluble form of the tetrazolium reagent in the original MIT assay. The formazan product is measured by absorbance at 492 nm.
Equal numbers of cells were seeded into 96-well tissue culture plates, and paired wells were treated once with pTT or diluent control as described above. At 24, 48 and 72 hours cell viability was assayed using the MTS assay and an ELIZA plate reader (Tecan Spectra II Model F039002, Austria) to measure absorbance at 492 nm. The experiments were conducted in parallel with cell yield Coulter counts, using the same donor cells.
Cell yields of pTT-treated fibroblasts were compared to diluent using 2-way ANOVA and a total of four different experiments, to identify significant difference between treatment groups as a function of cell number and time. The parallel MTS assay also utilized the 2-way ANOVA, to compare changes in OD at 492 nm as a function of time and treatment modality.

The subject of series [3] is GPX protein. The experiment in a line: Western blot analysis of antioxidant enzymes: GPX protein. The settings on record: 40 μM, within several hours, up to 168 hours. In kind it is cell-based, human. The procedure: as §1, with “After transfer, gels were stained with Coomassie Blue (Sigma) to ascertain evenness of loading.” left out
as §2
The levels of superoxide dismutase 1 (SOD1), superoxide dismutase 2 (SOD2), catalase (Cat) and glutathione peroxidase (GPX) were determined in newborn fibroblasts at different time points after treatment with 40 μM of T-oligo in comparison with cells treated either with 40 μM of control complementary oligo pCTAACCCTAAC (SEQ ID NO: 22) or diluent. […]

{P} = phosphate

Regarding “5′-phosphorylated thymidine dinucleotides [pTT]”, in series [1] (100 μM pTT, at 24 hours, three donors, mean±SEM), the “SOD2 protein maximal relative induction compared to diluent” value is on record as 31% (±20%). Moreover, the “cell viability (MTS formazan absorbance) vs diluent” value in series [2] (24-72 hours, 2-way ANOVA p=0.2588) is listed as “no significant decrease in cell viability”. For the same substance, the “mitochondrial reductive activity per cell (MTS absorbance per Coulter-counted cell)” value in series [2] (p=0.0093) is “significant increase in mitochondrial reductive activity per cell”.

Consider “pGTTAGGGTTAG (5' {P}, sugars by position and backbone not given here) [TO]”, for which the SOD2 protein level entry in series [1] (40 μM, within several hours, up to 168 hours) is “induced”. In addition, the GPX protein level result in series [3] is “induced”.
